Experimental data taken from publication PMC7763843, “Cytochrome P450 Expression and Chemical Metabolic Activity before Full Liver Development in Zebrafish” (Pharmaceuticals, 2020).
Structures can show the parent of a compound that is named as a salt. Where two headings read alike, the source gives them in different places.

Columns and labels:
[1] = system: zebrafish; details: cited from earlier work
[2] = cited from earlier work; for Detection of metabolite of midazolam (neither has been detected): adult zebrafish liver microsomes or embryonic or larval microsomes or homogenates at up to 7 dpf
[3] = system: cyp2n13, 2r1, 2y3, and 3a65; assay: qPCR of CYP subtypes in 55 hpf larvae after inducer exposure; details: 100 µM
Source text: (§1) Embryos were dechorionized, except in the case of those exposed to TCDD due to high transparency. […] 1,7-Dimethylxanthine, 4′-OHDF, 5-OHDF, and 6β-hydroxytestosterone were obtained from Sigma-Aldrich. DMSO was purchased from Nacalai Tesque (Kyoto, Japan).

[4] = system: cyp2n13 mRNA; details: 55 hpf larvae; exposure from 30 hpf; 100 µM rifampicin or phenobarbital
Method: as §1
(§2) Whole-mount in situ hybridization was performed as described previously. Paraformaldehyde-fixed embryos were hybridized with digoxigenin-incorporated antisense RNA probes of CYP subtypes at 65 °C overnight (DIG (digoxigenin) RNA Labeling Kit, Sigma-Aldrich). To obtain the CYP probes, CYP DNAs were amplified by PCR reaction with KOD FX Neo enzyme solution (Toyobo) with the primer sets listed in Table S2. This was followed by subcloning to pTAC2 TA vector (BioDynamics, Tokyo, Japan) and in vitro transcription with SP6 RNA polymerase (New England Biolabs, Ipswich, MA, USA). Following hybridization and washing, the embryos were incubated with anti-DIG antibody conjugated with alkaline phosphatase (Sigma-Aldrich) at 4 °C overnight. The color reaction was performed by incubation in BM Purple substrate or Fast Red (Sigma-Aldrich).

[5] = system: cyp2r1 mRNA
Method: as §1, §2

[6] = system: zebrafish embryos and larvae; assay: Maximum test solution concentration causing neither morphological nor behavioral abnormalities; assay type: in vivo, Danio rerio; details: exposure from 5 hpf up to 120 hpf
Method: (§3) To calculate the content of each compound per one whole zebrafish embryo or larva (i.e., the Ce), we first determined the maximum test solution concentrations that caused neither morphological nor behavioral abnormalities during exposure. […] Beginning at 5 hpf, normal embryos were exposed to the test solution (>1 mL/embryo) in a glass container. The plastic lid of the container was kept closed, and the embryos and larvae were maintained for up to 120 hpf at 28 ± 1 °C on a 14-h light–10-h dark cycle.

[7] = system: whole zebrafish embryo or larva; assay: Content of test compound per one whole zebrafish embryo or larva (Ce) every 24 hpf; assay type: in vivo, Danio rerio; details: mean ± SD, n = 3; for Ce per one whole embryo or larva: 120 hpf, exposure from 5 hpf (caffeine 10 mg/L, diclofenac 3.2 mg/L, testosterone 3.0 mg/L), maximum for caffeine
Method: The chorions of embryos were removed with forceps under a microscope before sampling for the Ce measurements. The dechorionated embryos (24 hpf) or the larvae (from 48 hpf onwards) were individually transferred through four beakers (for about 10 s per beaker) containing 500 mL of fresh dechlorinated tap water to remove chemical residues on the body surface. After that step, the embryos or larvae were homogenized with a silicone pestle in a 1.5 mL sampling tube containing a mixed solvent of the same composition as each liquid chromatography eluent to extract the test compound. The dechorionated embryos or the larvae were homogenized to extract the test compound. […] The supernatant was collected in a volumetric flask. The extraction procedure was performed twice, and the supernatants from the two batches were mixed and brought up to a volume of 1 mL with the mixed solvent of the same composition as each liquid chromatography eluent to extract the test compound.
Data were acquired in positive ion mode by using multiple reaction monitoring (MRM).

[8] = system: cyp2y3 mRNA; details: 55 hpf larvae; exposure from 30 hpf; 100 µM rifampicin or phenobarbital
Method: as §1, §2

[9] = system: whole zebrafish embryo or larva; assay: Contents of test compound metabolites per whole zebrafish embryo or larva; details: for Ce of caffeine per whole embryo or larva: metabolite experiment (Figure 6A), exposure to caffeine 10 mg/L
Method: as §3
Then, the mixture was centrifuged at 20,000× g for 15 min at 10 °C with a refrigerated centrifuge (CR21N, Hitachi Koki). The supernatant was collected in a sampling tube. The extraction procedure was performed twice. The supernatants of two batches were mixed and the mixture was evaporated completely by nitrogen gas spraying. A solution (500 μL) of the same composition as the eluent for each compound was added to the tube, and then the solution was filtered through a Millex-LG membrane filter with a 0.2-μm pore size (Merck). The filtrate was double diluted with a solution of the same composition as the eluent for each compound, and the resulting solution was mixed to prepare the sample for measurement. For 1,7-dimethylxanthine, to standardize the content of the larval matrix, a mixture of larvae in the control or the vehicle control was added to each standard solution in a stepwise concentration to create each calibration curve.
Each 5 μL sample was eluted in a mobile phase of methanol: water = 2:8 at a flow rate of 0.20 mL/min. 1,7-dimethylxanthine was monitored by using an ESI probe. Data were acquired in positive ion mode by using MRM. […]
A calibration curve for each target substance (regression equation by using the least-squares method: Y = aX + b, where Y is the analytical response and X is the concentration of the target substance) was made by using four or five concentrations of standard solution. […] Then, all target substances were quantified by using the absolute calibration curve method and one concentration of standard solution. […]

[10] = parameters: method as in PMID 11448232, PMID 7714751; details: cited from earlier work
[11] = system: cyp3a65 mRNA; details: in vivo
Method: as §1, §2

[12] = 55 hpf larvae, exposure from 30 hpf, 1.0 ppb TCDD, 100 µM phenobarbital or rifampicin

## CCOc1ccc(NC(C)=O)cc1 [phenacetin]
[1]; zebrafish 7 dpf incubated with the drug
  Detection of human CYP1A2-mediated metabolites: detected

## Cc1ncc2n1-c1ccc(Cl)cc1C(c1ccccc1F)=NC2O (stereo not drawn) [4-hydroxymidazolam]
[2]
  Detection of metabolite of midazolam (neither has been detected): Neither

## Nc1c2c(nc3ccccc13)CCCC2 [tacrine]
[1]; zebrafish, in vivo
  Detection of human CYP1A2-mediated metabolites: detected

## O=c1cc(-c2ccccc2)oc2ccc3ccccc3c12 [β-naphthoflavone]
[3]
  Significant induction of cyp2n13, 2r1, 2y3, and 3a65 by qPCR: not recognized

## CO[C@H]1/C=C/O[C@@]2(C)Oc3c(C)c(O)c4c(O)c(c(/C=N/N5CCN(C)CC5)c(O)c4c3C2=O)NC(=O)/C(C)=C\C=C\[C@H](C)[C@H](O)[C@@H](C)[C@@H](O)[C@@H](C)[C@H](OC(C)=O)[C@@H]1C [rifampicin]
[4]
  cyp2N13 mRNA expression by in situ hybridization: detected
[5]; [12]
  cyp2r1 mRNA signal by in situ hybridization (location similar to liver): Positive signals

## COc1ccc2c(c1)[C@]13CCCC[C@@H]1[C@H](C2)N(C)CC3 [dextromethorphan]
[2]; microsomes from whole embryos or larvae at 5, 24, 48, 72, 96, or 120 hpf
  Detection of metabolites of the compound: no metabolites of this compound have been detected

## OCc1ncc2n1-c1ccc(Cl)cc1C(c1ccccc1F)=NC2 [1-hydroxymidazolam]
[2]
  Detection of metabolite of midazolam (neither has been detected): Neither

## C[C@]12CC[C@H]3[C@@H](CCC4=CC(=O)CC[C@@]43C)[C@@H]1CC[C@@H]2O [testosterone]
[6]
  Maximum test solution concentration that caused neither morphological nor behavioral abnormalities during exposure: 3.0 mg/L
[7]; 48 hpf, exposure to 3.0 mg/L from 5 hpf
  Ce per embryo or larva (maximum value): 12.8 ± 1.14 ng
[7]
  Ce per one whole embryo or larva: 1.43 ± 0.11 ng

## COc1ccc2c(c1)[C@@]13CCCC[C@H]1[C@@H](C2)NCC3 [3-Methoxymorphinan]
[2]; adult zebrafish liver microsomes
  Detection of metabolite of dextromethorphan: detected

## CCC1(c2ccccc2)C(=O)NC(=O)NC1=O [phenobarbital]
[4]
  cyp2N13 mRNA expression by in situ hybridization: detected
[5]; in vivo
  cyp2r1 mRNA signal by in situ hybridization (location similar to liver): Positive signals
[8]
  cyp2y3 mRNA by in situ hybridization (liver and intestine locations): detectable

## Cn1c(=O)c2c(ncn2C)n(C)c1=O [caffeine]
[9]; 50 hpf
  Ce of caffeine per whole embryo or larva: 2.69 ± 0.14 ng
[9]; 120 hpf
  Ce of caffeine per whole embryo or larva: 5.15 ± 0.31 ng
[6]
  Maximum test solution concentration that caused neither morphological nor behavioral abnormalities during exposure: 10 mg/L
[10]
  log Kow: −0.07
[7]
  Ce per one whole embryo or larva: 4.54 ± 0.10 ng

## O=C(O)Cc1ccccc1Nc1c(Cl)cccc1Cl [diclofenac, diclofenac sodium salt]
[6]
  Maximum test solution concentration that caused neither morphological nor behavioral abnormalities during exposure: 3.2 mg/L
[10]; pH 7.4
  log Kow: 1.13
[7]; 72 hpf, exposure to 3.2 mg/L from 5 hpf
  Ce per embryo or larva (maximum value): 1.64 ± 0.15 ng

## Clc1cc2c(cc1Cl)Oc1cc(Cl)c(Cl)cc1O2 [TCDD, 2,3,7,8-tetrachlorodibenzo-p-dioxin]
[11]
  cyp3a65 mRNA signal by in situ hybridization: signal appeared in some
[5]; [12]
  cyp2r1 mRNA signal by in situ hybridization (location similar to liver): Positive signals

## C[C@]12CC[C@H]3[C@@H](C[C@@H](O)C4=CC(=O)CC[C@@]43C)[C@@H]1CC[C@@H]2O [6β-hydroxytestosterone]
[9]; 50 or 120 hpf, during exposure to testosterone
  Detection of metabolite in embryos or larvae: not detected
[1]; zebrafish larvae at 7 dpf or zebrafish adults
  Detection of metabolite of testosterone: detected
